Assays:
Cytochrome P450 4Z1 [1] = target: T1, Cytochrome P450 4Z1 (Homo sapiens, UniProt Q86W10); assay: Inhibition of CYP4Z1 in human HEK293T cells using Luciferin-BE as substrate at 10 uM incubated for 30 mins in presence of NADPH by luminescence based assay relative to control; format: ADME, cell-based; conditions: HEK-293T, 0.5 h
T1 sequence (Q86W10 whole entry): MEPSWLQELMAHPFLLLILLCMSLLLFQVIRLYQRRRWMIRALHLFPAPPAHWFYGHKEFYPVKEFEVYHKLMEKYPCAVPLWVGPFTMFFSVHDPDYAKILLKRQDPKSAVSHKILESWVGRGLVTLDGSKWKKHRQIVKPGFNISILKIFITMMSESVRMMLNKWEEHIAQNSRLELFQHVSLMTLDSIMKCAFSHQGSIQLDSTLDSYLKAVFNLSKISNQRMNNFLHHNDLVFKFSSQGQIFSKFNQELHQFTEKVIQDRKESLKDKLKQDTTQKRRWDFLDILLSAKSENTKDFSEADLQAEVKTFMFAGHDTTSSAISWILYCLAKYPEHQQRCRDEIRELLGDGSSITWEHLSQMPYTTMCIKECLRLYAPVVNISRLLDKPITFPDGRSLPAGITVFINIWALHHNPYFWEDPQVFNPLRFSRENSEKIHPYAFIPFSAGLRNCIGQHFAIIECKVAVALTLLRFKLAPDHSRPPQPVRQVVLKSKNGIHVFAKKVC

Cytochrome P450 4Z1 [2] = target: T1, Cytochrome P450 4Z1; assay: Inhibition of CYP4Z1 in human HEK293T cells using Luciferin-BE as substrate at 1 uM incubated for 30 mins in presence of NADPH by luminescence based assay relative to control; format: ADME, cell-based; conditions: HEK-293T, 0.5 h

Row | inhibition at 10 µM (Cytochrome P450 4Z1 [1]) | inhibition at 1 µM (Cytochrome P450 4Z1 [2]) | Compound
1 | 72.8% | 33.6% | CCc1ccc(N/C=N/O)cc1
2 | 84.3% | 54.2% | CCCCc1ccc(N/C=N/O)cc1

Source: ChEMBL document CHEMBL5236600, “Identification of a Novel Potent CYP4Z1 Inhibitor Attenuating the Stemness of Breast Cancer Cells through Lead Optimization” (J Med Chem, 2022)
